Data from patent publication US8399482B2, “6-substituted isoquinolines and isoquinolinones” (Sanofi, priority 2008, dated 2013).

molecular target: T1, human recombinant ROCK II (Homo sapiens, UniProt O75116); experiment: Determination of Rho kinase inhibition (ROCK II, Caliper peptide phosphorylation assay); assay type: biochemical; conditions: respective form (salt or free base) as obtained in the examples, 60 min at 32° C.
T1 construct: recombinant human ROCK-II residues 11-552; His6 (N); purchased Millipore GmbH, Schwalbach, Germany
T1 sequence (O75116 11-552): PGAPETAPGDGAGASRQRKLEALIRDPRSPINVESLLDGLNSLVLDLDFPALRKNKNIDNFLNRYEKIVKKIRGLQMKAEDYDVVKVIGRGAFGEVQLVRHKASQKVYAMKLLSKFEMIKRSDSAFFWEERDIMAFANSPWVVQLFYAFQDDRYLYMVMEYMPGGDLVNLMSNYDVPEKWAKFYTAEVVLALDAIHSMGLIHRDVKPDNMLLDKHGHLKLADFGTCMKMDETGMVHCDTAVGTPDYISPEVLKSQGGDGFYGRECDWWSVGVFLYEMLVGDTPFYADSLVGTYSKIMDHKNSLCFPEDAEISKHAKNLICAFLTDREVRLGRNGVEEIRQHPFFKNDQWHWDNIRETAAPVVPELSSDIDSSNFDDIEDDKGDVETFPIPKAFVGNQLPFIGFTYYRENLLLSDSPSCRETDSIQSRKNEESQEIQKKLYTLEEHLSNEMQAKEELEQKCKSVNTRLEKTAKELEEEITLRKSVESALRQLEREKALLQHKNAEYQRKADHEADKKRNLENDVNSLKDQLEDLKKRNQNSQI
Experimental: To measure Rho-kinase inhibition, IC50 values were determined according to the following protocol:
Active human recombinant ROCK II (N-terminal His6-tagged recombinant human ROCK-II residues 11-552) was purchased from Millipore GmbH, Schwalbach, Germany. The peptide substrate, Fluorescein-[…]-COOH, was obtained from JPT Peptide Technologies, Berlin, Germany. Adenosine-5′-triphosphate (ATP), bovine serum albumine (BSA), dimethylsulphoxide (DMSO), 4-(2-hydroxyethyl)piperazine-1-ethanesulfonic acid (Hepes), Brij-35, dithiothreitol (DTT) and Pluronic F-68 were purchased from Sigma-Aldrich, Munich, Germany. Tris(hydroxymethyl)-aminomethane (Tris), magnesium chloride, NaOH, 1M HCl and EDTA were obtained from Merck Biosciences, Darmstadt, Germany. “Complete” protease inhibitor was from Roche Diagnostics, Mannheim, Germany. Test compounds were diluted to the appropriate concentrations in buffer 1 (25 mM Tris-HCl, pH 7.4, 5 mM MgCl2, 2 mM DTT, 0.02% (w/v) BSA, 0.01% Pluronic F-68 and 3% DMSO). The ROCK II enzyme was diluted to a concentration of 100 ng/mL in buffer 2 (25 mM Tris-HCl, pH 7.4, 5 mM MgCl2, 2 mM DTT and 0.02% (w/v) BSA). The peptide substrate and ATP were diluted to concentrations of 3 μM and 120 μM, respectively, in the buffer 2. Two μl of the compound solution were mixed with 2 μl of the diluted enzyme in a 384-well small volume microtiter plate (Greiner, Bio-One, Frickenhausen, Germany), and the kinase reaction was initiated by addition of 2 μl of the solution containing peptide substrate and ATP. After 60 min incubation at 32° C., the reaction was stopped by addition of 20 μl of a solution containing 100 mM Hepes-NaOH, pH 7.4, 0.015% (v/v) Brij-35, 45 mM EDTA and 0.227% chip coating reagent 1 (Caliper Lifescience Inc, Hopkinton, Mass.). Phosphorylation of the substrate peptide was then detected on a Caliper 3000 instrument essentially as described by Pommereau et al (J. Biomol. Screening 2004, 9(5), 409-416). Separation conditions were as follows: Pressure −1.3 psi, upstream voltage −1562 V, downstream voltage −500 V, sample sip time 200 ms. Positive controls (buffer 1 instead of compound) and negative controls (buffer 1 instead of compound and buffer 2 instead of ROCK II) were run in parallel on each plate.
The following products/compounds were tested in said assay by using the respective form (salt or free base) obtained as in the examples described above and the following activities were measured

IC50 [nM] | pIC50 | Structure (SMILES)
100 to 1000 |  | CCC(N)C1(COC(C)C)CCC(Oc2cc3cc[nH]c(=O)c3cc2Cl)CC1 (single isomer, unassigned) [Example 20, 6-[4-(1-Amino-propyl)-4-isopropoxymethyl-cyclohexyloxy]-7-chloro-2H-isoquinolin-1-one]
100 to 1000 |  | CCC(N)[C@]1(CC)CC[C@H](Oc2c(F)cc3cnccc3c2C)CC1 (stereo partly drawn) [Example 57, cis-1-[1-Ethyl-4-(7-fluoro-5-methyl-isoquinolin-6-yloxy)-cyclohexyl]-propylamine]
100 to 1000 |  | NC(c1ccccc1)[C@]1(CC2CC2)CC[C@H](Oc2cc3cc[nH]c(=O)c3cc2Cl)CC1 (stereo partly drawn) [Example 63, cis-6-[4-(Amino-phenyl-methyl)-4-cyclopropylmethyl-cyclohexyloxy]-7-chloro-2H-isoquinolin-1-one]
100 to 1000 |  | CC[C@]1(C(C)N)CC[C@@H](Oc2ccc3cnccc3c2Cl)CC1 (stereo partly drawn) [Example 84, cis-1-[4-(5-Chloro-isoquinolin-6-yloxy)-1-ethyl-cyclohexyl]-ethylamine]
100 to 1000 |  | CCC(N)[C@]1(CC)CC[C@H](Oc2cc3ccncc3cc2C)CC1 (stereo partly drawn) [Example 56, cis-1-[1-Ethyl-4-(7-methyl-isoquinolin-6-yloxy)-cyclohexyl]-propylamine]
100 to 1000 |  | CC[C@]1(C(C)N)CC[C@@H](Oc2c(F)cc3c(=O)[nH]ccc3c2C)CC1 (stereo partly drawn) [Example 79, cis-6-[4-(1-Amino-ethyl)-4-ethyl-cyclohexyloxy]-7-fluoro-5-methyl-2H-isoquinolin-1-one]
100 to 1000 |  | CCCC[C@]1(C(N)CC)CC[C@@H](Oc2cc3c(Cc4ccccc4)c[nH]c(=O)c3cc2Cl)CC1 (stereo partly drawn) [Example 39, cis-6-[4-(1-Amino-propyl)-4-butyl-cyclohexyloxy]-4-benzyl-7-chloro-2H-isoquinolin-1-one]
100 to 1000 |  | CCC(N)C1(C(F)(F)F)CCC(Oc2cc3cc[nH]c(=O)c3cc2Cl)CC1 (single isomer, unassigned) [Example 104, 6-[4-(1-Amino-propyl)-4-trifluoromethyl-cyclohexyloxy]-7-chloro-2H-isoquinolin-1-one]
100 to 1000 |  | CC(C)C1(C(N)c2nccs2)CCC(Oc2cc3cc[nH]c(=O)c3cc2Cl)CC1 (single isomer, unassigned) [Example 46, 6-[4-(Amino-thiazol-2-yl-methyl)-4-isopropyl-cyclohexyl-oxy]-7-chloro-2H-isoquinolin-1-one]
 | +++++ (6.0 ≦ pIC50 < 7.0) | CCC(NCc1ccccc1)C1(CC)CCC(Oc2cc3cc[nH]c(=O)c3cc2Cl)CC1 (stereo not drawn) [Example 86, cis-6-[4-(1-Benzylamino-propyl)-4-ethyl-cyclohexyloxy]-7-chloro-2H-isoquinolin-1-one]
10 to 100 |  | CCOC1(C(N)CC)CCC(Oc2cc3cc[nH]c(=O)c3cc2Cl)CC1 (mixture of isomers) [Example 60, 6-[4-(1-Amino-propyl)-4-ethoxy-cyclohexyloxy]-7-chloro-2H-isoquinolin-1-one]
≤ 10 |  | CCC(N)[C@]1(C)CC[C@H](Oc2cc3cc[nH]c(=O)c3cc2Cl)CC1 (mixture of isomers) [Example 26, cis-6-[4-(1-Amino-propyl)-4-methyl-cyclohexyloxy]-7-chloro-2H-isoquinolin-1-one]
10 to 100 |  | CCC(N)C1(CC(C)C)CCC(Oc2cc3cc[nH]c(=O)c3cc2Cl)CC1 (single isomer, unassigned) [Example 29, 6-[4-(1-Amino-propyl)-4-isobutyl-cyclohexyloxy]-7-chloro-2H-isoquinoIin-1-one]
10 to 100 |  | CCC(N)C1(C2CCCC2)CCC(Oc2cc3cc[nH]c(=O)c3cc2Cl)CC1 (single isomer, unassigned) [Example 24, 6-[4-(1-Amino-propyl)-4-cyclopentyl-cyclohexyloxy]-7-chloro-2H-isoquinolin-1-one]
100 to 1000 |  | CC[C@]1(C(C)N)CC[C@@H](Oc2cc3ccncc3cc2Br)CC1 (stereo partly drawn) [Example 82, cis-1-[4-(7-Bromo-isoquinolin-6-yloxy)-1-ethyl-cyclohexyl]-ethylamine]
10 to 100 |  | CCC(N)[C@]1(CC2CCOCC2)CC[C@H](Oc2cc3cc[nH]c(=O)c3cc2Cl)CC1 (stereo partly drawn) [Example 67, cis-6-[4-(1-Amino-propyl)-4-(tetrahydro-pyran-4-ylmethyl)-cyclohexyloxy]-7-chloro-2H-isoquinolin-1-one]
100 to 1000 |  | CCC(NCC(C)C)[C@]1(CC)CC[C@H](Oc2cc3cc[nH]c(=O)c3cc2Cl)CC1 (stereo partly drawn) [Example 87, cis-7-Chloro-6-[4-ethyl-4-(1-isobutylamino-propyl)-cyclohexyloxy]-2H-isoquinolin-1-one]
100 to 1000 |  | CCC(N)[C@]1(CC)CC[C@H](Oc2c(F)cc3c(=O)[nH]ccc3c2C)CC1 (stereo partly drawn) [Example 51, cis-6-[4-(1-Amino-propyl)-4-ethyl-cyclohexyloxy]-7-fluoro-5-methyl-2H-isoquinolin-1-one]
100 to 1000 |  | CCC[C@]1(C(C)N)CC[C@@H](Oc2cc3ccnc(N)c3cc2Cl)CC1 (stereo partly drawn) [Example 100, cis-6-[4-(1-Amino-ethyl)-4-propyl-cyclohexyloxy]-7-chloro-isoquinolin-1-ylamine]
100 to 1000 |  | CCC(NCC1CC1)[C@]1(CC)CC[C@H](Oc2cc3cc[nH]c(=O)c3cc2Cl)CC1 (stereo partly drawn) [Example 85, cis-7-Chloro-6-{4-[1-(cyclopropylmethyl-amino)-propyl]-4-ethyl-cyclohexyloxy}-2H-isoquinolin-1-one]
100 to 1000 |  | CC[C@]1(C(C)N)CC[C@@H](Oc2cc3c(Cc4ccccc4)c[nH]c(=O)c3cc2Cl)CC1 (stereo partly drawn) [Example 81, cis-6-[4-(1-Amino-ethyl)-4-ethyl-cyclohexyloxy]-4-benzyl-7-chloro-2H-isoquinolin-1-one]
100 to 1000 |  | NC(C(F)(F)F)C1(CC2CC2)CCC(Oc2cc3cc[nH]c(=O)c3cc2Cl)CC1 (single isomer, unassigned) [Example 40, 6-[4-(1-Amino-2,2,2-trifluoro-ethyl)-4-cyclo-propylmethyl-cyclohexyloxy]-7-chloro-2H-isoquinolin-1-one]
100 to 1000 |  | CC[C@]1(C(C)N)CC[C@@H](Oc2c(F)cc3cnccc3c2C)CC1 (stereo partly drawn) [Example 80, cis-1-[1-Ethyl-4-(7-fluoro-5-methyl-isoquinolin-6-yloxy)-cyclohexyl]-ethylamine]
≤ 10 |  | CCC(N)[C@]1(CCCC(F)(F)F)CC[C@H](Oc2cc3cc[nH]c(=O)c3cc2Cl)CC1 (stereo partly drawn) [Example 66, cis-6-[4-(1-Amino-propyl)-4-(4,4,4-trifluoro-butyl)-cyclohexyloxy]-7-chloro-2H-isoquinolin-1-one]
≤ 10 |  | CCOC[C@]1(C(N)CC)CC[C@@H](Oc2cc3cc[nH]c(=O)c3cc2Cl)CC1 (stereo partly drawn) [Example 71, cis-6-[4-(1-Amino-propyl)-4-ethoxymethyl-cyclohexyloxy]-7-chloro-2H-isoquinolin-1-one]
10 to 100 |  | CCC1(C(N)CCOC)CCC(Oc2cc3cc[nH]c(=O)c3cc2Cl)CC1 (single isomer, unassigned) [Example 98, 6-[4-(1-amino-3-methoxy-propyl)-4-ethyl-cyclohexyloxy]-7-chloro-2H-isoquinolin-1-one]
100 to 1000 |  | CC(C)C(N)C1(C(C)C)CCC(Oc2cc3cc[nH]c(=O)c3cc2Cl)CC1 (stereo not drawn) [Example 89, 6-[4-(1-Amino-2-methyl-propyl)-4-isopropyl-cyclohexyloxy]-7-chloro-2H-isoquinolin-1-one]
10 to 100 |  | CCC(N)C1(C2CCOCC2)CCC(Oc2cc3cc[nH]c(=O)c3cc2Cl)CC1 (single isomer, unassigned) [Example 105]
100 to 1000 |  | CCC(N)[C@]1(CC)CC[C@H](Oc2c(C)cc3cnccc3c2C)CC1 (stereo partly drawn) [Example 53, cis-1-[4-(5,7-Dimethyl-isoquinolin-6-yloxy)-1-ethyl-cyclohexyl]-propylamine]
100 to 1000 |  | CCCCNC(CC)[C@]1(CC)CC[C@H](Oc2cc3cc[nH]c(=O)c3cc2Cl)CC1 (stereo partly drawn) [Example 88, cis-6-[4-(1-Butylamino-propyl)-4-ethyl-cyclohexyloxy]-7-chloro-2H-isoquinolin-1-one]
